Measurements: patent publication US6358982B1, “Heterocyclyl sulphonamide derivatives” (Eli Lilly and Company, priority 1998, dated 2002)

Molecular target: T1, human GluR4B receptor (Homo sapiens, UniProt P48058)
T1 construct: expressed in transfected cells
Assay: potentiation of agonist-induced excitability of human GluR4B receptor expressed in HEK 293 cells (Fluo-3 calcium fluorescence)
Assay type: cell-based
Conditions: human GluR4B expressed in HEK 293 cells
Excerpt: The ability of compounds of formula I to potentiate glutamate receptor-mediated response may be determined using fluorescent calcium indicator dyes (Molecular Probes, Eugene, Oreg., Fluo-3) and by measuring glutamate-evoked efflux of calcium into GluR4 transfected HEK293 cells, as described in more detail below.
In one test, 96 well plates containing confluent monolayers of HEK cells stably expressing human GluR4B (obtained as described in European Patent Application Publication Number EP-A1-583917) are prepared. The tissue culture medium in the wells is then discarded, and the wells are each washed once with 200 μl of buffer (glucose, 10 mM, sodium chloride, 138 mM, magnesium chloride, 1 mM, potassium chloride, 5 mM, calcium chloride, 5 mM, N-[2-hydroxyethyl]-piperazine-N-[2-ethanesulfonic acid], 10 mM, to pH 7.1 to 7.3). […]
Each test is then performed as follows. […] A second fluorescent reading is taken after 5 minutes incubation. 15 μl of 400 μM glutamate solution is then added to each well (final glutamate concentration […]), and a third reading is taken. The activities of test compounds and cyclothiazide solutions are determined by subtracting the second from the third reading (fluorescence due to addition of glutamate in the presence or absence of test compound or cyclothiazide) and are expressed relative to enhance fluorescence produced by 100 μM cyclothiazide.

T1 sequence (P48058 21-902): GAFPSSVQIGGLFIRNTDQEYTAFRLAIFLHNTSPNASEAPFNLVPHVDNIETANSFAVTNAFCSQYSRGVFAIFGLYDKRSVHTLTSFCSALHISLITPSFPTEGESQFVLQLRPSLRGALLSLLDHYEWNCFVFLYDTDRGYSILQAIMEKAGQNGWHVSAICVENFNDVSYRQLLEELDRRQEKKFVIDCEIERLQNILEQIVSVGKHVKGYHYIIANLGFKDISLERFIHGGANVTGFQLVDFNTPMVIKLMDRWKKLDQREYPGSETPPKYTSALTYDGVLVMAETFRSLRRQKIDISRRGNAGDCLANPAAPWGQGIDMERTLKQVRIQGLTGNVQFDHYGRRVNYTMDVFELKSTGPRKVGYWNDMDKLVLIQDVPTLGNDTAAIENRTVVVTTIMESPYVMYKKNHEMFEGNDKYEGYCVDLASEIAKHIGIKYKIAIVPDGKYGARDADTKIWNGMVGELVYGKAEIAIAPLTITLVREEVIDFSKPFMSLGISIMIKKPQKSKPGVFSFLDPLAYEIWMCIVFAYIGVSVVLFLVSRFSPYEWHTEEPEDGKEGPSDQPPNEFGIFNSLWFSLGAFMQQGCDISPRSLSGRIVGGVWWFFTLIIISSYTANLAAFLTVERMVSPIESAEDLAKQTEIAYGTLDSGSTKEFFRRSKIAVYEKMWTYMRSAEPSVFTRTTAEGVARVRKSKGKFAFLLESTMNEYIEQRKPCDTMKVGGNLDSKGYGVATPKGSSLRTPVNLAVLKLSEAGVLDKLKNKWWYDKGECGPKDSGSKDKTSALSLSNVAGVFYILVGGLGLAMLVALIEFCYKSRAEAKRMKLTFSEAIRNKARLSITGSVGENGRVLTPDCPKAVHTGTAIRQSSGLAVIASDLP

In the case of `NS(=O)(=O)c1cc2c(cc1Cl)NC(C1CC3C=CC1C3)NS2(=O)=O` (stereo not shown) [cyclothiazide], the “potentiation of agonist-induced excitability of human GluR4B receptor” value is reported as “potentiate”.
